Experimental data from patent US6737383B1, “Herbicidal oxadiazolidines” (priority 1999, dated 2004).

Columns and labels:
morningglory = assay: Test B pre/postemergence morningglory; type: in vivo, Ipomoea hederacea
Procedure, shortened: (§1)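 Response is a visual 0-to-10 score relative to untreated plants, where 0 means no effect and 10 means complete control, taken twelve to sixteen days after application. Treatments went onto soil at planting and onto foliage of 1- to 4-leaf plants, using a surfactant-containing non-phytotoxic solvent.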

rice = assay: Test B flood test rice; type: in vivo, Oryza sativa
Procedure, shortened: (§2)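 Plants were grown to the 2-leaf stage before treatment with test chemical, then held in a greenhouse for twelve to sixteen days. Injury was visually rated against untreated controls on a 0–10 scale, where 0 is no effect and 10 is complete control.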

wheat = assay: Test B pre/postemergence wheat; type: in vivo, Triticum aestivum
Procedure, shortened: as §1

giant foxtail = assay: Test B pre/postemergence giant foxtail; type: in vivo, Setaria faberii
Procedure, shortened: as §1

corn = assay: Test B pre/postemergence corn; type: in vivo, Zea mays
Procedure, shortened: as §1

blackgrass = assay: Test B pre/postemergence blackgrass; type: in vivo, Alopecurus myosuroides
Procedure, shortened: as §1

crabgrass = assay: Test B pre/postemergence crabgrass; type: in vivo, Digitaria sanguinalis
Procedure, shortened: as §1

soybean = assay: Test B pre/postemergence soybean; type: in vivo, Glycine max
Procedure, shortened: as §1

purple nutsedge = assay: Test B pre/postemergence purple nutsedge; type: in vivo, Cyperus rotundus
Procedure, shortened: as §1

surinam grass = assay: Test B pre/postemergence surinam grass; type: in vivo, Brachiaria decumbens
Procedure, shortened: as §1

smallflower flatsedge = assay: Test B flood test smallflower flatsedge; type: in vivo, Cyperus difformis
Procedure, shortened: as §2

wild oat = assay: Test B pre/postemergence wild oat; type: in vivo, Avena fatua
Procedure, shortened: as §1

duck salad = assay: Test B flood test duck salad; type: in vivo, Heteranthera limosa
Procedure, shortened: as §2

bedstraw = assay: Test B pre/postemergence bedstraw; type: in vivo, Galium aparine
Procedure, shortened: as §1

velvetleaf = assay: Test B pre/postemergence velvetleaf; type: in vivo, Abutilon theophrasti
Procedure, shortened: as §1

bamyardgrass = assay: Test B flood test barnyardgrass; type: in vivo, Echinochloa crus-galli
Procedure, shortened: as §2

cocklebur = assay: Test B pre/postemergence cocklebur; type: in vivo, Xanthium strumarium
Procedure, shortened: as §1

[1] = Preemergence, Rate 31 g/ha, visual rating, scale 0 to 10 (0 no effect, 10 complete control)
[2] = Preemergence, Rate 62 g/ha, scale of 0 to 10 where 0 is no effect and 10 is complete control
[3] = Preemergence, Rate 250 g/ha, scale of 0 to 10 where 0 is no effect and 10 is complete control
[4] = Rate 31 g/ha, Postemergence, scale 0 to 10
[5] = Rate 62 g/ha, Postemergence, scale of 0 to 10 where 0 is no effect and 10 is complete control
[6] = Rate 125 g/ha, Postemergence, scale 0 to 10
[7] = Rate 125 g/ha, Preemergence, scale of 0 to 10 where 0 is no effect and 10 is complete control
[8] = Rate 31 g/ha, Pre-emergence section (flood test species), scale 0 to 10
[9] = Rate 62 g/ha, headed Pre-emergence (flood test species), scale 0 to 10 (0 no effect, 10 complete control)
[10] = Rate 125 g/ha, Pre-emergence, flood test species, scale 0 to 10 where 0 is no effect and 10 is complete control
[11] = Rate 250 g/ha, Pre-emergence, flood-test species, scale 0 to 10, 0 is no effect, 10 is complete control

CCCCn1c(=O)on(C(=O)N(c2ccc(F)cc2)C(C)C)c1=O [Compound 221]
Morningglory plant response rating (morningglory; [1]): 0 | Morningglory plant response rating (morningglory; [2]): 0 | Morningglory plant response rating (morningglory; [3]): 0 | Morningglory plant response rating (morningglory; [4]): 0 | Morningglory plant response rating (morningglory; [5]): 0 | Morningglory plant response rating (morningglory; [6]): 0 | Morningglory plant response rating (morningglory; [7]): 0 | Plant response rating (0 to 10; 0 is no effect, 10 is complete control), Morningglory (morningglory; Rate 250 g/ha, Postemergence): 0 | Rice plant response rating (rice; [8]): 0 | Rice plant response rating (rice; [9]): 0 | Rice plant response rating (rice; [10]): 0 | Rice plant response rating (rice; [11]): 0 | Wheat plant response rating (wheat; [1]): 0 | Wheat plant response rating (wheat; [2]): 0 | Wheat plant response rating (wheat; [3]): 2 | Wheat plant response rating (wheat; [5]): 0 | Wheat plant response rating (wheat; [6]): 2 | Wheat plant response rating (wheat; [7]): 2 | Plant response rating (0 to 10; 0 is no effect, 10 is complete control), Wheat (wheat; Rate 250 g/ha, Postemergence): 4 | Giant foxtail plant response rating (giant foxtail; [1]): 5 | Giant foxtail plant response rating (giant foxtail; [2]): 5 | Giant foxtail plant response rating (giant foxtail; [3]): 10 | Giant foxtail plant response rating (giant foxtail; [4]): 0 | Giant foxtail plant response rating (giant foxtail; [5]): 2 | Giant foxtail plant response rating (giant foxtail; [6]): 7 | Giant foxtail plant response rating (giant foxtail; [7]): 9 | Plant response rating (0 to 10; 0 is no effect, 10 is complete control), Giant foxtail (giant foxtail; Rate 250 g/ha, Postemergence): 7 | Corn plant response rating (corn; [1]): 0 | Corn plant response rating (corn; [2]): 0 | Corn plant response rating (corn; [3]): 0 | Corn plant response rating (corn; [4]): 0 | Corn plant response rating (corn; [5]): 0 | Corn plant response rating (corn; [6]): 0 | Corn plant response rating (corn; [7]): 0 | Plant response rating (0 to 10; 0 is no effect, 10 is complete control), Corn (corn; Rate 250 g/ha, Postemergence): 0 | Blackgrass plant response rating (blackgrass; [1]): 5 | Blackgrass plant response rating (blackgrass; [2]): 5 | Blackgrass plant response rating (blackgrass; [3]): 7 | Blackgrass plant response rating (blackgrass; [4]): 2 | Blackgrass plant response rating (blackgrass; [5]): 2 | Blackgrass plant response rating (blackgrass; [6]): 9 | Blackgrass plant response rating (blackgrass; [7]): 7 | Plant response rating (0 to 10; 0 is no effect, 10 is complete control), Blackgrass (blackgrass; Rate 250 g/ha, Postemergence): 9 | Crabgrass plant response rating (crabgrass; [1]): 2 | Crabgrass plant response rating (crabgrass; [2]): 6 | Crabgrass plant response rating (crabgrass; [3]): 8 | Crabgrass plant response rating (crabgrass; [4]): 0 | Crabgrass plant response rating (crabgrass; [5]): 2 | Crabgrass plant response rating (crabgrass; [6]): 6 | Crabgrass plant response rating (crabgrass; [7]): 8 | Plant response rating (0 to 10; 0 is no effect, 10 is complete control), Crabgrass (crabgrass; Rate 250 g/ha, Postemergence): 8 | Soybean plant response rating (soybean; [1]): 0 | Soybean plant response rating (soybean; [2]): 0 | Soybean plant response rating (soybean; [3]): 0 | Soybean plant response rating (soybean; [5]): 2 | Soybean plant response rating (soybean; [6]): 2 | Soybean plant response rating (soybean; [7]): 0 | Plant response rating (0 to 10; 0 is no effect, 10 is complete control), Soybean (soybean; Rate 250 g/ha, Postemergence): 3 | Nutsedge plant response rating (purple nutsedge; [1]): 0 | Nutsedge plant response rating (purple nutsedge; [2]): 0 | Nutsedge plant response rating (purple nutsedge; [3]): 0 | Nutsedge plant response rating (purple nutsedge; [4]): 0 | Nutsedge plant response rating (purple nutsedge; [5]): 0 | Nutsedge plant response rating (purple nutsedge; [6]): 0 | Nutsedge plant response rating (purple nutsedge; [7]): 0 | Plant response rating (0 to 10; 0 is no effect, 10 is complete control), Nutsedge (purple nutsedge; Rate 250 g/ha, Postemergence): 0 | B. signalgrass plant response rating (surinam grass; [1]): 2 | B. signalgrass plant response rating (surinam grass; [2]): 5 | B. signalgrass plant response rating (surinam grass; Preemergence, Rate 250 g/ha, scale 0 to 10, 0 is no effect, 10 is complete control): 6 | B. signalgrass plant response rating (surinam grass; [4]): 0 | B. signalgrass plant response rating (surinam grass; [5]): 0 | B. signalgrass plant response rating (surinam grass; Rate 125 g/ha, Postemergence, scale 0 (no effect) to 10 (complete control)): 3 | B. signalgrass plant response rating (surinam grass; [7]): 5 | Plant response rating (0 to 10; 0 is no effect, 10 is complete control), B. signalgrass (surinam grass; Rate 250 g/ha, Postemergence): 8 | S. Flatsedge plant response rating (smallflower flatsedge; [8]): 0 | S. Flatsedge plant response rating (smallflower flatsedge; [9]): 0 | S. Flatsedge plant response rating (smallflower flatsedge; [10]): 0 | S. Flatsedge plant response rating (smallflower flatsedge; [11]): 0 | Wild oats plant response rating (wild oat; [1]): 2 | Wild oats plant response rating (wild oat; [2]): 2 | Wild oats plant response rating (wild oat; [3]): 4 | Wild oats plant response rating (wild oat; [5]): 0 | Wild oats plant response rating (wild oat; [6]): 0 | Wild oats plant response rating (wild oat; [7]): 2 | Plant response rating (0 to 10; 0 is no effect, 10 is complete control), Wild oats (wild oat; Rate 250 g/ha, Postemergence): 2 | Ducksalad plant response rating (duck salad; [8]): 0 | Ducksalad plant response rating (duck salad; [9]): 0 | Ducksalad plant response rating (duck salad; [10]): 0 | Ducksalad plant response rating (duck salad; [11]): 0 | Bedstraw plant response rating (bedstraw; [1]): 0 | Bedstraw plant response rating (bedstraw; [2]): 0 | Bedstraw plant response rating (bedstraw; [3]): 4 | Bedstraw plant response rating (bedstraw; [4]): 2 | Bedstraw plant response rating (bedstraw; [5]): 2 | Bedstraw plant response rating (bedstraw; [6]): 7 | Bedstraw plant response rating (bedstraw; [7]): 4 | Plant response rating (0 to 10; 0 is no effect, 10 is complete control), Bedstraw (bedstraw; Rate 250 g/ha, Postemergence): 9 | Velvetleaf plant response rating (velvetleaf; [1]): 0 | Velvetleaf plant response rating (velvetleaf; [2]): 0 | Velvetleaf plant response rating (velvetleaf; [3]): 0 | Velvetleaf plant response rating (velvetleaf; [5]): 0 | Velvetleaf plant response rating (velvetleaf; [6]): 0 | Velvetleaf plant response rating (velvetleaf; [7]): 0 | Plant response rating (0 to 10; 0 is no effect, 10 is complete control), Velvetleaf (velvetleaf; Rate 250 g/ha, Postemergence): 0 | Barnyardgrass plant response rating (bamyardgrass; [8]): 0 | Barnyardgrass plant response rating (bamyardgrass; [9]): 0 | Barnyardgrass plant response rating (bamyardgrass; [10]): 0 | Barnyardgrass plant response rating (bamyardgrass; [11]): 0 | Cocklebur plant response rating (cocklebur; [2]): 0 | Cocklebur plant response rating (cocklebur; [3]): 0 | Cocklebur plant response rating (cocklebur; [4]): 0 | Cocklebur plant response rating (cocklebur; [5]): 0 | Cocklebur plant response rating (cocklebur; [6]): 0 | Cocklebur plant response rating (cocklebur; [7]): 0 | Plant response rating (0 to 10; 0 is no effect, 10 is complete control), Cocklebur (cocklebur; Rate 250 g/ha, Postemergence): 0
